According to patent US20060110450A1, “Bilayer tablet of telmisartan and amlodipine” (Boehringer Ingelheim International GmbH, priority 2004, published 2006):

Tests used:
[1] = Stability of amlodipine in contact with the basic telmisartan formulation; assay type: physicochemical; conditions: direct contact with excipients to be used in a telmisartan formulation (basic components, e.g. sodium hydroxide or meglumine)
From the text: There are various types of fixed dose combination dosage forms conceivable but it cannot be predicted which of these dosage forms best combines product stability, pharmacological efficacy, and reliable manufacture. Generally, combinations of two active pharmaceutical ingredients could be formulated as oral solid or oral liquid dosage forms such as tablets, capsules, coated or sugar-coated tablets, granules, oral solutions, emulsions or suspensions, syrups, and lozenges. In view of experiences with liquid dosage forms of telmisartan, oral liquid dosage forms are not considered a preferred embodiment according to the present invention. An instant release oral solid dosage form containing two drugs could be prepared by either making a powder mixture or a co-granulate of the two active ingredients with the necessary excipients. However, for a combination of telmisartan and amlodipine, this approach turns out not to result in a dosage form with sufficient product stability. […] The ester bonds in the amlodipine molecule appear to be subject to hydrolysis when exposed to an alkaline milieu. […]

[2] = physiological pH range of the gastrointestinal tract between pH 1 to 7; cited from earlier work

| Compound | stability of amlodipine [1] | solubility in aqueous systems [2] |
| --- | --- | --- |
| 3-ethyl-5-methyl-2-(2-aminoethoxymethyl)-4-(2-chlorophenyl)-1,4-dihydro-6-methyl-3,5-pyridinedicarboxylate [amlodipine] | not stable enough |  |
| CCCc1nc2c(C)cc(-c3nc4ccccc4n3C)cc2n1Cc1ccc(-c2ccccc2C(=O)O)cc1 [Telmisartan, 4′-[2-n-propyl-4-methyl-6-(1-methylbenzimidazol-2-yl)benzimidazol-1-ylmethyl]biphenyl-2-carboxylic acid] |  | very poor solubility |
